Where two headings read alike, the source gives them in different places.
Legend:
oestrogenicity [1] = experiment: Allen-Doisy Test, oestrogenic activity (rat); format: in vivo
Description: (§1) Using a conventional Allen-Doisy Test, the Oestrogenic activity of certain compounds of the invention was ascertained. The anti-inflammatory activity of certain compounds of the invention was ascertained by using a standard Rat Paw Carrageenin Test.

Rat Paw Carrageenin = experiment: standard Rat Paw Carrageenin Test, anti-inflammatory activity; format: in vivo
Description: as §1

oestrogenicity [2] = experiment: Allen-Doisy Test, oestrogenic activity (mouse); format: in vivo
Description: as §1

UV Induced Erythrema = UV Induced Erythrema in Guinea Pigs; format: in vivo, guinea pig; details: Cavia porcellus, po
Text: b. UV Induced Erythrema in Guinea Pigs

Adjuvant arthritis = experiment: Adjuvant Arthritis in Rats; format: in vivo, rat; details: 60 mg/kg p.o. daily
Description: d. Adjurant Arthritis in Rats
Adjuvant arthritis is reduced in rats by the daily administration of doses of 60 mg/kg p.o.

[3] = system: gastric secretion / gastric damage; experiment: Gastric Damage in Pyloric Ligated Rats; format: in vivo; details: up to 200 mg/kg intra-duodenally, pyloric ligated rat
Text: 1. Gastric Damage in Pyloric Ligated Rats

[4] = system: Carrageenin Induced Oedema; experiment: Carrageenin Induced Oedema in Rats; format: in vivo, rat
Text: a. Carrageenin Induced Oedema in Rats

uterine weight = experiment: Oestrogenic Test in Rats (ovariectomised rats, uterine weight); format: in vivo, rat; details: 200 mg/kg p.o. and 600 mg/kg p.o., 4 days
Text: i. Oestrogenic Test in Rats

[5] = system: seminal vesicles, prostate gland or levator ani muscles; experiment: Anabolic/Androgenic Activity in Rats; format: in vivo, rat; details: 200 mg/kg p.o.
Text: j. Anabolic/Adrogenic Activity in Rats

[6] = system: release of corticosteroids from the adrenal gland; experiment: Interactions with the Adrenal/Pituitary Axis; format: in vivo; details: 140 mg/kg p.o./day, five days
Text: h. Interactions with the Adrenal/Pitutary Axis

[7] = General statements on gastro-intestinal irritation, oestrogenicity and anti-inflammatory activity; format: in vivo
[8] = system: Cotton Pellet Induced Granuloma; experiment: Cotton Pellet Induced Granuloma in Rats; format: in vivo, rat; details: 50 mg/kg p.o., day 0 to 5 days
Description: c. Cotton Pellet Induced Granuloma in Rats
Consistent activity (reducing induced granuloma by more than 30%) has been observed at 50 mg/kg p.o. dosed from day 0 to 5 days.

[9] = system: cultured mouse peritoneal macrophages; experiment: Macrophage Plasminogen Activator Release Test; format: cell-based; details: 1 mg/ml
Text: e. Macrophage Plasmongen Activator Release Test
On the test system of J. D. Vassalli et al., Cell, 8, 271-281 (1976), the compound […] caused 90% inhibition of the release of plasmogen activator from cultured mouse peritoneal macrophages.

[10] = system: Phenyl-p-quinone Induced Writhing; experiment: Phenyl-p-quinone Induced Writhing in Mice; format: in vivo; details: Mus musculus, po, read-out: ED50 for analgesic activity
Text: f. Phenyl-p-quinone Induced Writhing in Mice

endometrium = experiment: Gestagenic Activity in Rabbits (Clauberg test); format: in vivo, rabbit; details: 200 mg/kg p.o., 4 days
Text: k. Gestagenic Activity in Rabbits

gastro intestinal tract = experiment: Long term toxicity tests, gastro-intestinal tolerance; format: in vivo, rat; details: 180 mg/kg p.o. for 28 days
[11] = system: pyresis induced by Shigella endotoxin; experiment: Anti-pyretic Effect in Rabbits; format: in vivo, rabbit; details: doses down to 100 mg/kg p.o.
Text: g. Anti-pyretic Effect in Rabbits

[12] = system: gastric erosions or ulceration; experiment: Ulcerogenic Activity in Rats; format: in vivo, rat; details: 250 or 500 mg/kg p.o.
Text: m. Ulcerogenic Activity in Rats.

## COc1ccc2cc(C(C)C(C)=O)ccc2c1 (centres unmarked) [3-(6'-methoxy-2'-naphthyl)-butan-2-one, 3-(6'-methoxy-2'-napthyl)-butan-2-one]
Oestrogenicity [1]; 600 mg/kg orally
  Oestrogenicity, Allan-Doisy test: Inactive
Rat Paw Carrageenin; 100 mg/kg orally
  Anti-inflammatory, rat carrageenan: Active
Oestrogenicity [2]; 50 mg/kg sub.cut.
  Oestrogenicity, Allan-Doisy test: Inactive

## CCC(c1ccc2cc(OC)ccc2c1)C(C)(O)C(C)=O (centres unmarked) [3-hydroxy-3-methyl-4-(6'-methoxy-2'-naphthyl)-hexan-2-one]
Rat Paw Carrageenin; 100 mg/kg orally
  Anti-inflammatory, rat carrageenan: Inactive
Oestrogenicity [2]; 50 mg/kg sub.cut.
  Oestrogenicity, Allan-Doisy test: Active

## COc1ccc2cc(C(C)C(C)(O)C(C)=O)ccc2c1 (centres unmarked) [3-hydroxy-3-methyl-4-(6'-methoxy-2'-naphthyl)-pentan-2-one]
Rat Paw Carrageenin; 50 and 100 mg/kg orally
  Anti-inflammatory, rat carrageenan: Active
Oestrogenicity [2]; 100 mg/kg sub.cut.
  Oestrogenicity, Allan-Doisy test: Active

## COc1ccc2cc(C(C)CC(C)=O)ccc2c1 (centres unmarked) [4-(6'-methoxy-2'-naphthyl)-pentan-2-one]
Oestrogenicity [1]; 200 mg/kg orally
  Oestrogenicity, Allan-Doisy test: Inactive
Oestrogenicity [1]; 300 mg/kg orally
  Oestrogenicity, Allan-Doisy test: Active
Rat Paw Carrageenin; 50 mg/kg orally
  Anti-inflammatory, rat carrageenan: Slightly Active
Rat Paw Carrageenin; 100 mg/kg orally, 1 hr. after dosing
  Anti-inflammatory, rat carrageenan: Active
Rat Paw Carrageenin; 300 mg/kg orally
  Anti-inflammatory, rat carrageenan: Active

## COc1ccc2cc(CCC(C)=O)ccc2c1 [4-(6'-methoxy-2'-naphthyl)butan-2-one]
UV Induced Erythrema
  ED50: 9 to 15 mg/kg
Adjuvant arthritis
  Adjuvant arthritis: reduced
[3]
  overt gastric damage: nor did overt gastric damage result
  systemically mediated effect on the volume of gastric secretion: have not been found to have a systemically mediated effect
[4]; 5, 10, 35 and 70 mg/kg p.o.
  reduction in induced oedema volume: significant reduction
[4]; Rattus norvegicus, po, rats
  ED25: 7 to 10 mg/kg
[4]; adrenalectomised rats
  Activity in adrenalectomised rats: Activity is maintained
Uterine weight
  increase in uterine weight: did not result in any increase in uterine weight
[5]; 4 days, castrated young male rats
  increase in weight of seminal vesicles, prostate gland or levator ani muscles: did not result in any increase
[5]; testosterone 1 mg/kg s.c.
  interference with androgenic/anabolic activity of concomitantly administered testosterone: did not interfere
[6]
  interference with release of corticosteroids in response to ACTH administration or to ether stress: does not interfere
[7]; at the therapeutic dose
  oestrogenic effects or gastric-irritant effects: not causing either oestrogenic effects or pronounced gastric-irritant effects
[7]; general statement
  anti-inflammatory activity: good spectrum of anti-inflammatory activity
  anti-pyretic and analgesic activity: anti-pyretic and analgesic activity
  hormone like activity: free of hormone like activity
  therapeutic ratio based on gastro intestinal irritancy: good therapeutic ratio
[8]
  changes in body weight or in weight of spleen, thymus, kidney, liver or adrenal glands: not accompanied by marked changes
[9]
  inhibition of the release of plasminogen activator: slight inhibition
[10]; mice
  ED50: ~110 mg/kg
endometrium
  uterine hypertrophy or progestational changes in the endometrium: did not result in uterine hypertrophy or progestational changes in the endometrium
Gastro intestinal tract
  gastro intestinal tolerance: well tolerated
[11]
  reduction of pyresis induced by intravenous Shigella endotoxin: reduced pyresis
[12]; longer than 4 hours
  gastric erosions, longer contact times: in some cases to some degree of erosions
[12]; rats starved 18 hours, 1 or 4 hours after dosing
  gastric erosions or ulceration: did not give rise to gastric erosions or ulceration

## COc1ccc2cc(C=CC(C)=O)ccc2c1 [4-(6-Methoxy-2-naphthyl)-3-buten-2-one]
Oestrogenicity [1]; 300 mg/kg orally
  Oestrogenicity, Allan-Doisy test: Inactive
Rat Paw Carrageenin; 300 mg/kg orally
  Anti-inflammatory, rat carrageenan: Active

## CC(=O)Oc1ccccc1C(=O)O [ASPIRIN, acetylsalicylic acid, reference compound]
[10]
  ED50: ~60 mg/kg

## COc1ccc2cc(/C(C)=C/C(C)=O)ccc2c1 [trans-4-(6'-methoxy-2'-naphthyl)-pent-3-ene-2-one]
Rat Paw Carrageenin; 100 mg/kg orally
  Anti-inflammatory, rat carrageenan: Active
Oestrogenicity [2]; 100 mg/kg sub.cut.
  Oestrogenicity, Allan-Doisy test: Inactive

Source: patent US4061779A, “Naphthalene derivatives having anti-inflammatory activity” (Beecham Group Limited, priority 1973, dated 1977)
